Source: EP0725068A1 (TOKYO TANABE COMPANY LIMITED, priority 1993, dated 1995)
Where a name gives a salt, the structure may show the parent alone. Read-outs that look alike come from different tables or passages of the source.

Columns and labels:
[1] = system: restraint stress-induced diarrhea; experiment: Inhibiting effect on restraint stress-induced diarrhea, oral administration (Test 3); format: in vivo, Wistar rats; conditions: for No. of animals with diarrhea / No. of animals used: feces observed 5 hours; for inhibition at 0.01 mg/kg: Rattus norvegicus, po, 1 h, read-out: Inhibition rate
Protocol: This test was conducted following the method of Miyata, et al. (The Journal of Pharmacology and Experimental Therapeutics Vol.261, No.1, 297 (1992)). Nine to ten-week-old male Wistar rats starved overnight were placed in stress cages and their feces produced in 5 hours were observed. Of 15 rats, 14 developed diarrhea. The test compounds were administered orally one hour prior to placement in the stress cage, and the rate of inhibition on diarrhea was measured.

cardiac 5-HT3 receptors = target: T1, cardiac 5-HT3 receptors (Rattus norvegicus, UniProt P35563); experiment: Antagonism against von Bezold-Jarisch reflex (BJ reflex): serotonin-induced reflexive bradycardia (Test 2); format: in vivo, SD rats; conditions: for ED50: rat, intravenous, 5 minutes prior to 30 µg/kg serotonin i.v., anesthetized male SD rats, read-out: ID50 (the source's name)
T1 construct: from tissue; host or cells: whole anaesthetised male SD rat (in vivo)
T1 sequence (P35563 24-483): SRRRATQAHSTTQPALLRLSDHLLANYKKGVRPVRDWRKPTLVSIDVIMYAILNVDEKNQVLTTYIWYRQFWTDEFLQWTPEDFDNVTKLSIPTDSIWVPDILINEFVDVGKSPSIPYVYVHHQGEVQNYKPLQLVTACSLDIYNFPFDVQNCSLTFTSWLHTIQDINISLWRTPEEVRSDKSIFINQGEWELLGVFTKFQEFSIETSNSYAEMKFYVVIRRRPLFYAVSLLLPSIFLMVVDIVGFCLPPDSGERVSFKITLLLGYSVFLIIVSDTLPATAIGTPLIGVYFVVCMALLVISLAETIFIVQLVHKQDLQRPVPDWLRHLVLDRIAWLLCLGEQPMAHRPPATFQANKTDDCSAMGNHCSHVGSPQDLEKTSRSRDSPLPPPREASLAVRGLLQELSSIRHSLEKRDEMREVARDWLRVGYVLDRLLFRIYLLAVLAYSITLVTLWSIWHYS
Protocol: This test was conducted following the method of Fozard, at al. (Arch. Pharmacology, 326, 36-44, 1984). Male SD rats with a body weight of around 300 g were anesthetized by intraabdominal administration of 1.25 g/kg urethane, and an intravenous injection cannula was inserted in the right femoral vein while a sphygmomanometric cannula was inserted into the left femoral artery. The pulse was determined by measuring the electrocardiogram R waves (secondary induction) with an instantaneous pulse rate meter. After confirming satisfactory reproducibility of the reflexive bradycardia induced by intravenous administration of 30 µg/kg serotonin, the test compounds were intravenously administered 5 minutes prior to serotonin administration, the inhibition rates with respect to the initial values were found and the 50% inhibition doses (ID50) were calculated.

colonic 5-HT3 receptors = target: T2, colonic 5-HT3 receptors (Cavia porcellus, UniProt O70212); experiment: Colonic 5-HT3 receptor antagonism: inhibition of 2-methylserotonin-induced contraction of isolated distal colon (Test 1); format: biochemical, guinea pigs; conditions: for M (×10^-9 Mole): molar antagonist concentration corresponding to pA2, guinea pig distal colon, 2-methylserotonin; for Kb: pA2, isolated guinea pig distal colon
T2 construct: the distal colons (3-10 cm from the anus) were isolated and suspended in a Magnus tube filled with Krebs solution; from tissue; host or cells: isolated distal colon of male Hartley guinea pig
T2 sequence (O70212 20-490): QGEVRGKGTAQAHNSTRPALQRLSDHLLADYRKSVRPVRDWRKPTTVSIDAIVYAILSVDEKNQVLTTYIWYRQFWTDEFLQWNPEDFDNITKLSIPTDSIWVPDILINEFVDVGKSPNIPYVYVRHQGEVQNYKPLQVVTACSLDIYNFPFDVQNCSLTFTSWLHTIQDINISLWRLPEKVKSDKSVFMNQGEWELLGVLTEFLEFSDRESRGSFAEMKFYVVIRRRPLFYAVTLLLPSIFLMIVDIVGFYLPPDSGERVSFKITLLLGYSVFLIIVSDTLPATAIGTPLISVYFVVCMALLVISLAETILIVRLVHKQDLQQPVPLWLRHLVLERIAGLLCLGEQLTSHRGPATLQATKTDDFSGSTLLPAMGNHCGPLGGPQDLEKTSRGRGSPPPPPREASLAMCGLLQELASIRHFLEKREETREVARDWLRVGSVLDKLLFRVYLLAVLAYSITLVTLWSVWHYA

stress-related diarrhea = conditions: animal models; J. Pharmacol. Exp. Ther. 261, 297 (1992); cited from earlier work
[2] = 10μg/kg orally one hour prior to stress cage
[3] = contraction induced by 2-methylserotonin

| Compound | M (×10^-9 Mole) (colonic 5-HT3 receptors) | Kb (colonic 5-HT3 receptors; [3]) | further results |
| --- | --- | --- | --- |
| Cc1[nH]cnc1CN1CCc2c(c3cccc4c3n2CCC4)C1=O [A, 5,6,9,10-tetrahydro-10-[(5-methyl-1H-imidazol-4-yl)methyl]-4H-pyrido[3',4':4,5]pyrrolo[3,2,1-ij] quinolin-11(8H)-one] | 10 ×10^-9 Mole | 10 nM | No. of animals with diarrhea / No. of animals used [1, 2]: 8/10; inhibition at 0.01 mg/kg [1]: 20%; ED50 (cardiac 5-HT3 receptors): 0.11 µg/kg |
| Cc1[nH]cnc1CN1CCc2c(c3ccccc3n2C)C1=O.Cl [Allosetron hydrochloride, 2,3,4,5-tetrahydro-5-methyl-2-[(5-methyl-1H-imidazol-4-yl)methyl]-1H-pyrido[4,3-b]indol-1-one hydrochloride] | 21 ×10^-9 Mole | 20 nM | ED50 (cardiac 5-HT3 receptors): 0.28 µg/kg |
| Cc1[nH]cnc1CN1CCc2c(c3cccc4c3n2CC4)C1=O [B, 4,5,7,8-tetrahydro-9-[(5-methyl-1H-imidazol-4-yl)methyl]-pyrido[4,3-b]pyrrolo[3,2,1-hi]indol-10(9H)-one] | 10 ×10^-9 Mole | > 10 nM |  |
| Cc1[nH]cnc1CN1CCc2c(c3cccc4c3n2CCO4)C1=O [C, 1,2,9,10-tetrahydro-8-[(5-methyl-1H-imidazol-4-yl)methyl]pyrido[3',4':4,5]pyrrolo[1,2,3-de][1,4]benzoxadin-7(8H)-one] | >10 ×10^-9 Mole | > 10 nM |  |
| Cc1[nH]cnc1CN1CCc2c(c3cccc4c3n2C(c2ccccc2)CC4)C1=O.Cl (stereo not drawn) [Compound 1, 5,6,8,9,10,11-hexahydro-10-[(5-methyl-1H-imidazol-4-yl)methyl]-6-phenyl-11-oxo-4H-pyrido[3',4':4,5]pyrrolo[3,2,1-ij] quinoline hydrochloride] | 0.41 ×10^-9 Mole | 0.398 nM | No. of animals with diarrhea / No. of animals used [1, 2]: 5/10; inhibition at 0.01 mg/kg [1]: 50%; activity on the heart receptors relative to Ondansetron (cardiac 5-HT3 receptors; BJ reflex ID50 ratio, vs Ondansetron): about 4 times; activity on the heart receptors relative to YM-060 (cardiac 5-HT3 receptors; BJ reflex ID50 ratio, vs YM-060): about 1/19; ED50 (cardiac 5-HT3 receptors): 0.5 µg/kg; selectivity for colonic 5-HT3 receptors relative to Allosetron (colonic 5-HT3 receptors; from Tests 1 and 2 (colon vs heart), vs Allosetron): about 90 times; selectivity for colonic 5-HT3 receptors relative to Ondansetron (colonic 5-HT3 receptors; from Tests 1 and 2 (colon vs heart), vs Ondansetron): about 125 times; selectivity for colonic 5-HT3 receptors relative to YM-060 (colonic 5-HT3 receptors; from Tests 1 and 2 (colon vs heart), vs YM-060): about 190 times; selectivity for colonic 5-HT3 receptors relative to compound A (colonic 5-HT3 receptors; from Tests 1 and 2 (colon vs heart), vs compound A): about 100 times |
| Cc1[nH]cnc1CN1CCCc2c(c3cccc4c3n2CC4)C1=O [D, 4,5,7,8,9,10-hexahydro-10-[(5-methyl-1H-imidazol-4-yl)methyl]-11H-azepino[4,3-b]pyrrolo[3,2,1-hi]indol-11-one] | >10 ×10^-9 Mole | > 10 nM |  |
| Cc1[nH]cnc1CN1CCc2c(c3cccc4c3n2CCCC4)C1=O [E] | >10 ×10^-9 Mole |  | pA2 (colonic 5-HT3 receptors; isolated guinea pig distal colon, contraction induced by 2-methylserotonin): <8.0 |
| Cc1[nH]cnc1CN1CCCc2c(c3cccc4c3n2CCC4)C1=O [F, 11-[(5-methyl-1H-imidazol-4-yl)methyl]-5,6,9,10,11,12-hexahydro-4H,8H-azepino[3',4':4,5]pyrrolo[3,2,1-ij]quinolin-12-one] | >10 ×10^-9 Mole | > 10 nM |  |
| Cc1[nH]cnc1CN1CCc2c(c3cccc4c3n2-c2ccccc2CC4)C1=O [G, 3-[(4-methyl-1-H-imidazol-5-yl)methyl]-1,2,3,4,8,9-hexahydro-pyrido[4',3':2,3]indolo[1,7a,7-ab][1]benzazepin-4-one] | >10 ×10^-9 Mole | > 10 nM |  |
| CN1C2CCCC1CC(NC(=O)c1nn(C)c3ccccc13)C2 (stereo not drawn) [Granisetron, N-(endo-9-methyl-9-azabicyclo[3,3,1]non-3-yl)-1-methylindazol-3-carboxamide hydrochloride] |  |  | suppression of stress-related diarrhea (stress-related diarrhea): suppress stress-related diarrhea in animal models |
| CN1C2CCC1CC(N1CCc3c(c4cccc5c4n3CCC5)C1=O)C2 (stereo not drawn) [H] | >10 ×10^-9 Mole | > 10 nM |  |
| O=C1c2c(n3c4c(cccc24)CCC3)CCN1C1CN2CCC1CC2 (stereo not drawn) [I, 10-(1-azabicyclo-[2,2,2]oct-3-yl)-5,6,8,9,10,11-hexahydro-4H-pyrido[3',4':4,5]pyrrolo[3,2,1-ij]quinolin-11-one] | >10 ×10^-9 Mole | > 10 nM |  |
| Cc1nccn1CC1CCc2c(c3ccccc3n2C)C1=O (stereo not drawn) [Ondansetron hydrochloride, 1,2,3,4-tetrahydro-9-methyl-3-[(2-methyl-1H-imidazol-1-yl)methyl]-4H-carbazol-4-one hydrochloride dihydrate] | 227 ×10^-9 Mole | 251 nM | ED50 (cardiac 5-HT3 receptors): 2 µg/kg; suppression of stress-related diarrhea (stress-related diarrhea): suppress stress-related diarrhea in animal models |
| Cl.Cn1cc(C(=O)[C@@H]2CCc3nc[nH]c3C2)c2ccccc21 [YM-060, (R)-(-)-5-[(1-methylindol-3-yl)carbonyl]-4,5,6,7-tetrahydrobenzimidazole hydrochloride] | 4.5 ×10^-9 Mole | 3.98 nM | No. of animals with diarrhea / No. of animals used [1, 2]: 7/10; inhibition at 0.01 mg/kg ([1]; 10μg/kg orally one hour prior to stress cage, inhibition of diarrhea): 30%; suppression of stress-related diarrhea (stress-related diarrhea): suppress stress-related diarrhea in animal models |
